Assays:
[1] = thought to be due to increased fluid retention and fat accumulation; cited from earlier work
[2] = Phase II clinical trial CV168-006: weight gain by GRL SNP1 (Asn363Ser) genotype; assay type: in vivo, human; details: patients treated with 20 mg in CV168-006; data up to 24 weeks
Procedure: (§1) Genomic DNA samples from patients enrolled in two Bristol-Myers Squibb Company Phase II clinical trial CV168-006 were genotyped for 1 SNP identified in the human GRL gene (see Example 7) and evaluated for association with weight gain.
(§2) 498 subjects enrolled in the CV168-006 trial were analyzed in this study. All analyses were based on data collected up to 24 weeks, which was the duration of the short-term phase of the trials. DNA was extracted from frozen blood by a third-party (Genaissance Inc, North Carolina) using a salting-out method (Gentra Systems). All subjects gave written informed consent.
(§3) The influence on SNP1 on weight gain and the probability of achieving lower levels of glycosylated hemoglobin (HbA1C) was assessed using ANOVA (GRL; P=0.005; P=0.007; respectively).
(§4) Genotyping was performed using the 5′ nuclease assay, essentially as described (Ranade K et al., Genome Research 11: 1262-1268 (2001); which is hereby incorporated by reference herein in its entirety), with the following modifications: six nanograms of genomic DNA were used in a 8 ul reaction. All PCR reactions were performed in an ABI 9700 machine and fluorescence was measured using an ABI 7900 machine. […]
(§5) Statistical Analyses. The influence of the SNP on weight gain and decreased glycosylated hemoglobin (HbA1C) was assessed using ANOVA. […]

[3] = Phase II clinical trial CV168-006: weight gain by PPAR-alpha SNP1 (Leu162Val) genotype; assay type: in vivo, human
Procedure: Genomic DNA samples from patients enrolled in a Bristol-Myers Squibb Company Phase II clinical trial CV168-006 trial were genotyped for 1 SNP identified in the human PPAR-alpha gene (see Example 1) and evaluated for association with weight gain.
as §2
Genotyping was performed using the 5′ nuclease assay, essentially as described (Ranade K et al., Genome Research 11: 1262-1268 (2001); which is hereby incorporated by reference herein in its entirety), with the following modifications: six nanograms of genomic DNA were used in a 8 ul reaction. All PCR reactions were performed in an ABI 9700 machine and fluorescence was measured using an ABI 7900 machine.
The association between weight gain and the single nucleotide polymorphisms of the present invention were investigated by applying statistical analysis to the results of the genotyping assays described elsewhere herein. […]
Statistical Analyses. The influence of the SNP on weight gain was assessed using ANOVA. […]

[4] = test system: glycosylated hemoglobin (HbA1C); assay: Phase II clinical trial CV168-006: glycosylated hemoglobin (HbA1C) by GRL SNP1 (Asn363Ser) genotype; assay type: in vivo, human; details: patients treated with 20 mg in CV168-006; data up to 24 weeks
Procedure: as §1, §2, §3, §4, §5

CCc1ccc(CCOc2ccc(CC3SC(=O)NC3=O)cc2)nc1 (stereo not shown) [pioglitazone]
weight gain (side effect) [1]: can cause weight gain in some individuals

COc1ccc(OC(=O)N(CC(=O)O)Cc2ccc(OCCc3nc(-c4ccccc4)oc3C)cc2)cc1 [Compound A, N-[(4-methoxyphenoxy)carbonyl]-N-[[4-[2-(5-methyl-2-phenyl-4-oxazolyl)ethoxy]phenyl]methyl]glycine]
influence of GRL SNP1 on weight gain, P (ANOVA) [2]: 0.005
weight gain (side effect) [1]: result in weight gain
weight gain, carriers of the Valine allele vs homozygous Leucine allele (PPARα residue 162) ([3]; patients of a Phase II trial, Val carriers compared with Leu/Leu): gained significantly less weight
influence of PPAR-alpha SNP1 on weight gain, P (ANOVA) ([3]; patients treated with 20 mg in CV168-006, data up to 24 weeks): 0.039
influence of GRL SNP1 on lower levels of glycosylated hemoglobin (HbA1C), P (ANOVA) [4]: 0.007

CN(CCOc1ccc(CC2SC(=O)NC2=O)cc1)c1ccccn1 (stereo not shown) [rosiglitazone]
weight gain (side effect) [1]: can cause weight gain in some individuals
